Reference: patent US20260355225A1 (priority 2022, published 2026)
Values after ≈ are worked out from the molar mass of the structure shown. Values joined by “and” are separate entries in the source; they are usually repeats but may differ in a detail not shown here. Identical values can stand only once.

Key:
Vero AD cells = test: Cytotoxicity of D-xylose, MTT assay, absence of viral infection (Example 1); type: cell-based; details: 6 h pre-treatment
Protocol: (§1) Cells (Vero E6) were used, with two modes of administration: either at the same time or 6 h before infection with SARS-CoV-2 (isolated early).
(§2) The readout for this test is CPE, so the infection will be stopped at 72 hpi (hours post-infection), and the compound will remain for the duration of the experiment. In parallel, the cytotoxicity of the same compound concentrations will be tested in the absence of viral infection.
(§3) The day before the experiment, the 8,000 cells/well are seeded in two 96-well plates (clear, Sarstedt), one for the antiviral study and one for the cytotoxicity study.
(§4) 134.4 μl of the 1 M composition is transferred to 1,465.6 μl of infection medium (=84 mM, twice the final maximum concentration).
(§5) Next, the cell support in the cytotoxicity plate is removed.
(§6) Immediately afterwards, 50 μl of undiluted infection medium is added to all the wells.
(§7) Next, 50 μl of infection medium without diluent is added to columns 4 to 6.
(§8) Next, the plate is incubated at 37 °C, 5% CO2 for 48 h.
(§9) After 72 h, when the CPE is evident, an MTT assay is performed for the antiviral and cytotoxicity plates.

[1] = as above; type: cell-based; details: monkey, vero cells
Protocol: as §1, §2, §3, §4, §5, §6, §7, §8, §9

cells = details: cited from earlier work
[2] = D-xylose absorption tests; cited from earlier work
SARS-CoV-2 = test: Antiviral assay, inhibition of virus-induced cytopathic effect (CPE) of SARS-CoV-2 by MTT assay (Example 1); details: for Viability percentage: 4320 min
[3] = system: glycated hemoglobin (HbA1c); details: healthy person; cited from earlier work
glycosaminoglycans = details: fibroblasts, keranocytes, CHO, BHK, BAE and other cells; cited from earlier work
HeLa TZMBL cells = test: Cytotoxicity of D-xylose alone or + insulin, MTT assay, absence of viral infection (Example 2); details: for Cytotoxicity percentage / Viability percentage: 2880 min
[4] = as above; details: human, hela tzmbl cells
HIV-1 NL4-3 = test: Antiviral assay against HIV-1 NL4-3, percentage of infected cells by immunofluorescence (Example 2); details: Human immunodeficiency virus 1, NL43, 48 h
[5] = as above; details: human, hela tzmbl cells, Viability Percentages, D-xylose 104.000 mM, replicate wells
[6] = according to Sigma cat #1.08689; cited from earlier work

O=C[C@H](O)[C@@H](O)[C@H](O)CO [D-xylose]
Viability percentage (Vero AD cells; 0.328125 mM, 328.125 µM): 119.81% | Viability percentage (Vero AD cells; 0.65625 mM, 656.25 µM): 100.84% and 108.33% | Cytotoxicity percentage (Vero AD cells; 1.3125 mM, 1312.5 µM): −21.81% and −24.31% and −17.82% | Viability percentage (Vero AD cells; 1.3125 mM, 1312.5 µM): 124.31% and 117.82% | Viability percentage (Vero AD cells; 2.625 mM, 2625 µM): 118.32% and 114.82% | Cytotoxicity percentage (Vero AD cells; 5.25 mM, 5250 µM): −15.32% and −18.81% and −10.83% | Viability percentage (Vero AD cells; 5.25 mM, 5250 µM): 118.81% and 110.83% | Cytotoxicity percentage (Vero AD cells; 10.5 mM, 10500 µM): −9.33% and −10.83% and −6.33% | Viability percentage (Vero AD cells; 10.5 mM, 10500 µM): 110.83% and 106.33% | Cytotoxicity percentage (Vero AD cells; 21 mM, 21000 µM): −9.83% and −10.33% | Viability percentage (Vero AD cells; 21 mM, 21000 µM): 110.33% | Cytotoxicity percentage (Vero AD cells; 42 mM, 42000 µM): −7.83% and −9.83% and −3.34% | Viability percentage (Vero AD cells; 42 mM, 42000 µM): 103.34% | viability at 328.125 µM ([1]; 6 h pre-treatment, 0.328125 mM, read-out: Viability percentage): 130% | viability at 656.25 µM ([1]; 6 h pre-treatment, 0.65625 mM, read-out: Viability percentage): 90.9% | viability at 1312.5 µM ([1]; 6 h pre-treatment, 1.3125 mM, read-out: Viability percentage): 122% | viability at 2625 µM ([1]; 6 h pre-treatment, 2.625 mM, read-out: Viability percentage): 108% | viability at 5250 µM ([1]; 6 h pre-treatment, 5.25 mM, read-out: Viability percentage): 115% | viability at 10500 µM ([1]; 6 h pre-treatment, 10.5 mM, read-out: Viability percentage): 109% | viability at 21000 µM ([1]; 6 h pre-treatment, 21 mM, read-out: Viability percentage): 110% | viability at 42000 µM ([1]; 6 h pre-treatment, 42 mM, read-out: Viability percentage): 108% | CC50 ([1]; MTT, no virus): > 42 mM | xylose in cytosol at equilibrium (cells; in the presence of insulin): 80% | xylose in plasma at equilibrium (cells; in the presence of insulin): 20% | increase of penetration rate of D-xylose into the cells (cells; with insulin): two to five times | side effects [2]: laxative effects in adults, diarrhea, nausea, and vomiting | absorbance at 570 nm (SARS-CoV-2; 6 h pre-treatment, 0.328125 mM): 0.067 and 0.073 and 0.088 | absorbance at 570 nm (SARS-CoV-2; 6 h pre-treatment, 0.65625 mM): 0.08 and 0.081 and 0.085 | Viability percentage (SARS-CoV-2; 6 h pre-treatment, 0.65625 mM, 656.25 µM): −8.66% and −7.49% and −2.79% | absorbance at 570 nm (SARS-CoV-2; 6 h pre-treatment, 1.3125 mM): 0.08 and 0.099 and 0.091 | absorbance at 570 nm (SARS-CoV-2; 6 h pre-treatment, 2.625 mM): 0.075 and 0.121 and 0.124 | absorbance at 570 nm (SARS-CoV-2; 6 h pre-treatment, 5.25 mM): 0.087 and 0.106 and 0.098 | absorbance at 570 nm (SARS-CoV-2; 6 h pre-treatment, 10.5 mM): 0.102 and 0.096 | absorbance at 570 nm (SARS-CoV-2; 6 h pre-treatment, 21 mM): 0.116 and 0.109 and 0.098 | absorbance at 570 nm (SARS-CoV-2; 6 h pre-treatment, 42 mM): 0.095 and 0.09 and 0.108 | viability at 10500 µM (SARS-CoV-2; Severe acute respiratory syndrome coronavirus 2, Vero C1008, in Chlorocebus sabaeus, 72 h, read-out: Viability percentage, 6 h pre-treatment, 10.5 mM): 17.2% | viability at 656.25 µM (SARS-CoV-2; Severe acute respiratory syndrome coronavirus 2, Vero C1008, in Chlorocebus sabaeus, 72 h, read-out: Viability percentage, at time of infection, 0.65625 mM): 10.1% | IC50 (SARS-CoV-2; Severe acute respiratory syndrome coronavirus 2, co-administration of D-xylose and SARS-CoV-2): 95.5 mM | IC50 (SARS-CoV-2; Severe acute respiratory syndrome coronavirus 2, pre-incubation of D-xylose 6 h prior to SARS-CoV-2 infection): 26.2 mM | absorbance at 570 nm (SARS-CoV-2; at time of infection, 0.328125 mM): 0.088 and 0.087 | Viability percentage (SARS-CoV-2; at time of infection, 0.328125 mM, 328.125 µM): 0.73% and −0.44% | absorbance at 570 nm (SARS-CoV-2; at time of infection, 0.65625 mM): 0.096 and 0.099 and 0.101 | Viability percentage (SARS-CoV-2; at time of infection, 0.65625 mM, 656.25 µM): 13.66% and 16.01% | absorbance at 570 nm (SARS-CoV-2; at time of infection, 1.3125 mM): 0.096 and 0.094 and 0.091 | Viability percentage (SARS-CoV-2; at time of infection, 1.3125 mM, 1312.5 µM): 7.78% and 4.26% | absorbance at 570 nm (SARS-CoV-2; at time of infection, 2.625 mM): 0.141 and 0.113 and 0.103 | absorbance at 570 nm (SARS-CoV-2; at time of infection, 5.25 mM): 0.09 and 0.137 and 0.126 | absorbance at 570 nm (SARS-CoV-2; at time of infection, 10.5 mM): 0.109 and 0.131 and 0.107 | absorbance at 570 nm (SARS-CoV-2; at time of infection, 21 mM): 0.111 and 0.151 and 0.113 | absorbance at 570 nm (SARS-CoV-2; at time of infection, 42 mM): 0.059 and 0.095 and 0.09 | effect on glycated hemoglobin (HbA1c) levels [3]: little or no effect | stimulation of glycosaminoglycans (glycosaminoglycans): proven glycosaminoglycan stimulators of several cell types | median cytotoxic concentration (TC50) (HeLa TZMBL cells; 48 h, MTT): 260.3 | Results for Cytotoxicity (MTT readout) (HeLa TZMBL cells; D-xylose 1.625 mM): 2.399 and 2.351 and 2.424 | Cytotoxicity percentage (HeLa TZMBL cells; D-xylose 1.625 mM, 1625 µM): 0.47% and 2.50% and −0.58% | Viability percentage (HeLa TZMBL cells; D-xylose 1.625 mM, 1625 µM): 97.50% and 100.58% | Results for Cytotoxicity (MTT readout) (HeLa TZMBL cells; D-xylose 3.25 mM): 2.286 and 2.266 and 2.242 | Cytotoxicity percentage (HeLa TZMBL cells; D-xylose 3.25 mM, 3250 µM): 6.09% and 7.10% | Viability percentage (HeLa TZMBL cells; D-xylose 3.25 mM, 3250 µM): 93.91% and 92.90% | Results for Cytotoxicity (MTT readout) (HeLa TZMBL cells; D-xylose 6.5 mM): 2.168 and 2.211 and 2.316 | Cytotoxicity percentage (HeLa TZMBL cells; D-xylose 6.5 mM, 6500 µM): 10.22% and 8.41% and 3.98% | Viability percentage (HeLa TZMBL cells; D-xylose 6.5 mM, 6500 µM): 91.59% and 96.02% | Results for Cytotoxicity (MTT readout) (HeLa TZMBL cells; D-xylose 13 mM): 2.175 and 2.293 and 2.032 | Viability percentage (HeLa TZMBL cells; D-xylose 13 mM, 13000 µM): 95.05% and 84.04% | Results for Cytotoxicity (MTT readout) (HeLa TZMBL cells; D-xylose 26 mM): 2.196 and 2.137 and 2.158 | Cytotoxicity percentage (HeLa TZMBL cells; D-xylose 26 mM, 26000 µM): 11.53% and 10.64% | Viability percentage (HeLa TZMBL cells; D-xylose 26 mM, 26000 µM): 88.47% and 89.36% | Results for Cytotoxicity (MTT readout) (HeLa TZMBL cells; D-xylose 52 mM): 2.123 and 2.266 and 2.199 | Cytotoxicity percentage (HeLa TZMBL cells; D-xylose 52 mM, 52000 µM): 6.09% and 8.91% | Viability percentage (HeLa TZMBL cells; D-xylose 52 mM, 52000 µM): 93.91% and 91.09% | Results for Cytotoxicity (MTT readout) (HeLa TZMBL cells; D-xylose 104 mM): 2.075 and 2.027 and 2.064 | Cytotoxicity percentage (HeLa TZMBL cells; D-xylose 104 mM, 104000 µM): 16.17% and 14.61% | Viability percentage (HeLa TZMBL cells; D-xylose 104 mM, 104000 µM): 83.83% and 85.39% | cytotoxicity at 48 h, 3250 µM ([4]; Cytotoxicity percentage, D-xylose 3.25 mM): 5.24% | cytotoxicity at 48 h, 26000 µM ([4]; Cytotoxicity percentage, D-xylose 26 mM): 9.04% | cytotoxicity at 48 h, 52000 µM ([4]; Cytotoxicity percentage, D-xylose 52 mM): 12.1% | cytotoxicity at 48 h, 104000 µM ([4]; Cytotoxicity percentage, D-xylose 104 mM): 14.1% | viability at 48 h, 1625 µM ([4]; Viability percentage, D-xylose 1.625 mM): 99.5% | viability at 48 h, 3250 µM ([4]; Viability percentage, D-xylose 3.25 mM): 94.8% | viability at 48 h, 6500 µM ([4]; Viability percentage, D-xylose 6.5 mM): 89.8% | viability at 48 h, 13000 µM ([4]; Viability percentage, D-xylose 13 mM): 90.1% | viability at 48 h, 26000 µM ([4]; Viability percentage, D-xylose 26 mM): 91% | viability at 48 h, 52000 µM ([4]; Viability percentage, D-xylose 52 mM): 87.9% | viability at 48 h, 104000 µM ([4]; Viability percentage, D-xylose 104 mM): 85.9% | activity at 1625 µM (HIV-1 NL4-3; read-out: % Infection, D-xylose 1.625 mM, replicate wells): 20.8% | activity at 3250 µM (HIV-1 NL4-3; read-out: % Infection, D-xylose 3.250 mM, replicate wells): 20.4% | activity at 6500 µM (HIV-1 NL4-3; read-out: % Infection, D-xylose 6.500 mM, replicate wells): 18.1% | activity at 13000 µM (HIV-1 NL4-3; read-out: % Infection, D-xylose 13.000 mM, replicate wells): 20.4% | activity at 26000 µM (HIV-1 NL4-3; read-out: % Infection, D-xylose 26.000 mM, replicate wells): 20.6% | activity at 52000 µM (HIV-1 NL4-3; read-out: % Infection, D-xylose 52.000 mM, replicate wells): 20.2% | activity at 104000 µM (HIV-1 NL4-3; read-out: % Infection, D-xylose 104.000 mM, replicate wells): 14.9% | viability at 48 h, 104000 µM [5]: 20.8% | solubility [6]: 550 mg/mL (≈ 3660 mM)
